Experimental findings from ChEMBL document CHEMBL1201862, “PubChem BioAssay data set” (2004) are described below.

Test systems include SF-539; K562; 786-0; HL-60; KM12; NCI/ADR-RES; SR; A549; COLO 205; OVCAR-8; SF-268; SK-MEL-2; HT-29; MDA-MB-231; MDA-MB-435; MDA-N; T47D; NCI-H522; SF-295; EKVX.
Holding throughout (assay): NCI-60 cell line screen, 48 h

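These data come from cells grown in 96-well plates and exposed to compound for 48 hours at five concentrations. Abbreviation: GI50, concentration required for 50% inhibition of growth.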 Calls of active or inactive are those of the source. No stated cut-off is given here; in the data, active = GI50 up to about 1.1 µM and inactive = higher.

Regarding `Oc1cc(-c2cccc(Br)c2)nc2cc3c(cc12)OCO3`, the GI50 was 2.19 µM (inactive) in the experiment with SF-539; 3.74 µM (inactive) in the experiment on K562; 3.52 µM (inactive) in the experiment with 786-0; 3.57 µM (inactive) with HL-60; 3 µM (inactive) in the experiment on KM12; 4.56 µM (inactive) in the experiment on NCI/ADR-RES. The GI50 in the experiment with SR was 1.93 µM (inactive); in the experiment with A549, 7.24 µM (inactive); with COLO 205, 32 µM (inactive); in the experiment on OVCAR-8, 4.57 µM (inactive); in the experiment on SF-268 it was 4.36 µM (inactive); in the experiment on SK-MEL-2, 2.16 µM (inactive). Further, the GI50 is 30.9 µM (inactive) in the experiment with HT-29; 10.1 µM (inactive) with MDA-MB-231; 0.883 µM (active) with MDA-MB-435; 0.31 µM (active) in the experiment on MDA-N; 14.6 µM (inactive) in the experiment on T47D; 3.93 µM (inactive) in the experiment with NCI-H522. The GI50 in the experiment on SF-295 is 1.06 µM (active).
Turning to `Cc1ccc(CCCCCOc2ccc(C3=NCCO3)cc2)s1`, the GI50 in the experiment with K562 was 9.29 µM (inactive); with 786-0 it was > 100 µM (inactive); with HL-60, > 100 µM (inactive); in the experiment on KM12, > 100 µM (inactive); in the experiment with EKVX, > 100 µM (inactive); in the experiment with NCI/ADR-RES, > 100 µM (inactive). Moreover, the GI50 was 2.84 µM (inactive) with SR; > 100 µM (inactive) in the experiment with A549; > 100 µM (inactive) in the experiment on COLO 205; > 100 µM (inactive) in the experiment on OVCAR-8; > 100 µM (inactive) in the experiment with SF-268; > 100 µM (inactive) with SK-MEL-2. Also, the GI50 with HT-29 was > 100 µM (inactive); in the experiment on MDA-MB-231, > 100 µM (inactive); in the experiment on MDA-MB-435 it was 4.85 µM (inactive); in the experiment with MDA-N it was 5.68 µM (inactive); in the experiment on T47D it was > 100 µM (inactive); in the experiment with NCI-H522 it was > 100 µM (inactive). In addition, in the experiment on SF-295, the GI50 was > 100 µM (inactive).
For `CO/C(=N\N=C\c1cccc(Cl)c1)c1ccncc1`, the GI50 in the experiment with K562, with 786-0, with HL-60, in the experiment on KM12, with EKVX and with NCI/ADR-RES was > 10 µM (inactive) throughout. Also, the GI50 with SR, with A549, with COLO 205, in the experiment on OVCAR-8, with SF-268 and with SK-MEL-2 was > 10 µM (inactive) in each case. Also, the GI50 in the experiment on HT-29, with MDA-MB-231, with MDA-MB-435, in the experiment with MDA-N, in the experiment with T47D and with NCI-H522 was > 10 µM (inactive) each time. Moreover, in the experiment on SF-295, the GI50 is > 10 µM (inactive).
For the compound `N#C/C(=C\c1ccccc1)C(=O)Nc1nnc(-c2ccccc2)o1`, the GI50 was 26.4 µM (inactive) with K562; 53 µM (inactive) with 786-0; 20.7 µM (inactive) in the experiment with HL-60; 41.8 µM (inactive) in the experiment with KM12; 47.3 µM (inactive) in the experiment on EKVX; 29.6 µM (inactive) in the experiment on NCI/ADR-RES. The GI50 was 25.6 µM (inactive) in the experiment with SR; 34.1 µM (inactive) in the experiment on A549; 28.3 µM (inactive) in the experiment with COLO 205; 36.1 µM (inactive) with OVCAR-8; 47.2 µM (inactive) with SF-268; 52.1 µM (inactive) with SK-MEL-2. Also, the GI50 in the experiment with HT-29 was 41.3 µM (inactive); in the experiment with MDA-MB-231, 31.5 µM (inactive); with MDA-MB-435, 37.8 µM (inactive); in the experiment with MDA-N it was 35.4 µM (inactive); with T47D, 31.3 µM (inactive); in the experiment with NCI-H522, 38 µM (inactive). For the same compound, the GI50 in the experiment on SF-295 was 13.2 µM (inactive).
In the case of `Cc1cc(S(=O)(=O)Nc2nc(-c3ccccn3)n[nH]2)c(S)cc1Cl`, the GI50 is 21.7 µM (inactive) in the experiment on SF-539; 12.1 µM (inactive) with 786-0; 16.1 µM (inactive) in the experiment on HL-60; 20.4 µM (inactive) in the experiment on KM12; 16.1 µM (inactive) with EKVX; 6.5 µM (inactive) in the experiment with NCI/ADR-RES. In addition, the GI50 in the experiment with SR is 24.3 µM (inactive); in the experiment with A549, 12.9 µM (inactive); in the experiment on COLO 205, 25.9 µM (inactive); in the experiment on OVCAR-8 it was 11 µM (inactive); in the experiment on SF-268, 17.7 µM (inactive); with SK-MEL-2, 10.3 µM (inactive). Further, the GI50 was 15.3 µM (inactive) with HT-29; 29.2 µM (inactive) in the experiment with MDA-MB-231; 25.1 µM (inactive) in the experiment on MDA-MB-435; 42.2 µM (inactive) in the experiment on MDA-N; 15.3 µM (inactive) in the experiment with T47D; 27.4 µM (inactive) with NCI-H522.
`CCN(CC)C(=O)c1cc([N+](=O)[O-])c(=O)n2c1[nH]c1ccccc12`: the GI50 in the experiment with SF-539, in the experiment on K562, with 786-0, in the experiment on HL-60, in the experiment with KM12 and in the experiment on EKVX was > 100 µM (inactive) in each case. Besides, the GI50 in the experiment with NCI/ADR-RES, with SR, in the experiment on A549, with COLO 205, with OVCAR-8 and in the experiment with SF-268 was > 100 µM (inactive) throughout. The GI50 with HT-29, in the experiment on MDA-MB-231, with MDA-MB-435, in the experiment on MDA-N, in the experiment with T47D and in the experiment with NCI-H522 was > 100 µM (inactive) throughout. Also, the GI50 in the experiment on SF-295 was > 100 µM (inactive).
As to `CSc1nc(SC)c2c(C)cn(COCCOC(=O)c3ccccc3)c2n1`, the GI50 in the experiment on SF-539 is 27.3 µM (inactive); in the experiment on 786-0 it was > 100 µM (inactive); with HL-60, 36.7 µM (inactive); in the experiment with KM12, > 100 µM (inactive); with EKVX it was > 100 µM (inactive); in the experiment on NCI/ADR-RES, > 100 µM (inactive). In addition, the GI50 with SR, in the experiment with A549, with COLO 205, in the experiment on OVCAR-8, with SF-268 and in the experiment on SK-MEL-2 was > 100 µM (inactive) in each case. In addition, the GI50 with HT-29 is > 100 µM (inactive); in the experiment with MDA-MB-231, > 100 µM (inactive); in the experiment with MDA-MB-435, > 100 µM (inactive); in the experiment on MDA-N it was > 100 µM (inactive); in the experiment with T47D, 32.8 µM (inactive); in the experiment on NCI-H522 it was > 100 µM (inactive). In the experiment on SF-295, the GI50 was > 100 µM (inactive).
`COc1cc(OC)cc(-c2cc(=O)c3c(OC)c(OC)c(OC)c(OC)c3o2)c1`: the GI50 with SF-539 was 80 µM (inactive); in the experiment on K562 it was 20.7 µM (inactive); in the experiment on 786-0 it was 29.9 µM (inactive); in the experiment on HL-60, 7.26 µM (inactive); in the experiment with EKVX it was 29.2 µM (inactive); in the experiment on NCI/ADR-RES, 29.8 µM (inactive). For the same compound, the GI50 was > 100 µM (inactive) in the experiment with SR; 33.8 µM (inactive) with A549; 16.3 µM (inactive) with COLO 205; 33.6 µM (inactive) with OVCAR-8; 29.6 µM (inactive) in the experiment on SF-268; 18 µM (inactive) in the experiment with SK-MEL-2. The GI50 with HT-29 is 28.7 µM (inactive); with MDA-MB-231, 59.7 µM (inactive); in the experiment with MDA-MB-435 it was 32.8 µM (inactive); with MDA-N it was 41.2 µM (inactive); in the experiment on T47D, 20.9 µM (inactive); in the experiment on NCI-H522, 21.2 µM (inactive). For the same compound, the GI50 with SF-295 is 23 µM (inactive).
